According to patent US20250041312A1, “METHODS OF ADMINISTERING A MODULATOR OF HEMOGLOBIN” (Global Blood Therapeutics, Inc., priority 2021, published 2025):
Where two headings read alike, the source gives them in different places.

Experiment: SAD study in healthy volunteers: PK in plasma, whole blood, red blood cells
Assay type: in vivo, human
Conditions: human; for half-life: read-out: t1/2 (converted); for Tmax: median
Protocol: To evaluate the safety and tolerability of single ascending doses of Compound I, 48 healthy volunteers (42 in the fasted state and 6 in the fed state) aged 18 to 55 years old were administered single ascending doses (50 mg to 2200 mg) of Compound I, while 16 healthy volunteers (14 in the fasted state and 2 in the fed state) aged 18 to 55 years old were administered placebo in a double blind, randomized, sequential manner.
Whole blood pharmacokinetic (PK) parameters, using actual sample collection times, and hemoglobin occupancy after single ascending dose are shown in Table 5 (containing data from both healthy volunteers and SCD subjects) and Table 6 (containing data from only healthy volunteer subjects).

Cmax (whole blood, 2200 mg, HV single 2200 mg, mean): 390 µg/mL | AUC(0-t) (whole blood, 2200 mg, HV single 2200 mg, whole blood, mean, blood collected up to day 7, read-out: AUC0-t): 48000 µg·h/mL | Cmax (whole blood, po, 50 mg, HV single oral 50 mg (Cohort 1), geometric mean): 8 µg/mL | AUC(0-t) (whole blood, po, 50 mg, HV single oral 50 mg (Cohort 1), whole blood, geometric mean, read-out: AUClast): 6810 µg·h/mL | half-life (whole blood, po, 50 mg, HV single oral 50 mg (Cohort 1), whole blood, geometric mean): 683 h | Cmax (whole blood, po, 100 mg, HV single oral 100 mg (Cohort 2), geometric mean): 17.3 µg/mL | AUC(0-t) (whole blood, po, 100 mg, HV single oral 100 mg (Cohort 2), whole blood, geometric mean, read-out: AUClast): 14300 µg·h/mL | half-life (whole blood, po, 100 mg, HV single oral 100 mg (Cohort 2), whole blood, geometric mean): 698 h | Cmax (whole blood, po, 200 mg, HV single oral 200 mg (Cohort 3), geometric mean): 34.2 µg/mL | AUC(0-t) (whole blood, po, 200 mg, HV single oral 200 mg (Cohort 3), whole blood, geometric mean, read-out: AUClast): 28600 µg·h/mL | half-life (whole blood, po, 200 mg, HV single oral 200 mg (Cohort 3), whole blood, geometric mean): 677 h | Cmax (whole blood, po, 400 mg, HV single oral 400 mg (Cohort 5), geometric mean): 87.6 µg/mL | AUC(0-t) (whole blood, po, 400 mg, HV single oral 400 mg (Cohort 5), whole blood, geometric mean, read-out: AUClast): 62200 µg·h/mL | half-life (whole blood, po, 400 mg, HV single oral 400 mg (Cohort 5), whole blood, geometric mean): 609 h | Cmax (whole blood, po, 800 mg, HV single oral 800 mg (Cohort 6), geometric mean): 149 µg/mL | AUC(0-t) (whole blood, po, 800 mg, HV single oral 800 mg (Cohort 6), whole blood, geometric mean, read-out: AUClast): 103000 µg·h/mL | half-life (whole blood, po, 800 mg, HV single oral 800 mg (Cohort 6), whole blood, geometric mean): 625 h | Cmax (whole blood, po, 1400 mg, HV single oral 1400 mg (Cohort 7), geometric mean): 230 µg/mL | AUC(0-t) (whole blood, po, 1400 mg, HV single oral 1400 mg (Cohort 7), whole blood, geometric mean, read-out: AUClast): 192000 µg·h/mL | half-life (whole blood, po, 1400 mg, HV single oral 1400 mg (Cohort 7), whole blood, geometric mean): 656 h | Cmax (whole blood, po, 2200 mg, HV single oral 2200 mg (Cohort 8), geometric mean): 387 µg/mL | AUC(0-t) (whole blood, po, 2200 mg, HV single oral 2200 mg (Cohort 8), whole blood, geometric mean, read-out: AUClast): 264000 µg·h/mL | half-life (whole blood, po, 2200 mg, HV single oral 2200 mg (Cohort 8), whole blood, geometric mean): 590 h | Tmax (HV single 50 mg, whole blood): 24 h | Tmax (HV single 100 mg, whole blood): 24 h | Tmax (HV single 200 mg, whole blood): 8 h | Tmax (HV single 400 mg, whole blood): 8 h | Tmax (HV single 800 mg, whole blood): 16 h | Tmax (HV single 1400 mg, whole blood): 12 h | Tmax (HV single 2200 mg, whole blood): 24 h | AUC(0-inf) (HV single oral 50 mg (Cohort 1), plasma, geometric mean): 34.2 µg·h/mL | Tmax (HV single oral 50 mg (Cohort 1), plasma): 0.75 h | AUC(0-inf) (HV single oral 50 mg (Cohort 1), red blood cells (calculated conc.), geometric mean): 18100 µg·h/mL | Tmax (HV single oral 50 mg (Cohort 1), red blood cells (conc. calculated from blood, plasma, hematocrit)): 24 h | AUC(0-inf) (HV single oral 50 mg (Cohort 1), whole blood, geometric mean): 7490 µg·h/mL | Tmax (HV single oral 50 mg (Cohort 1), whole blood): 24 h | AUC(0-inf) (HV single oral 100 mg (Cohort 2), plasma, geometric mean): 74.5 µg·h/mL | Tmax (HV single oral 100 mg (Cohort 2), plasma): 1 h | AUC(0-inf) (HV single oral 100 mg (Cohort 2), red blood cells (calculated conc.), geometric mean): 38500 µg·h/mL | Tmax (HV single oral 100 mg (Cohort 2), red blood cells (calculated conc.)): 24 h | AUC(0-inf) (HV single oral 100 mg (Cohort 2), whole blood, geometric mean): 15900 µg·h/mL | Tmax (HV single oral 100 mg (Cohort 2), whole blood): 24 h | AUC(0-inf) (HV single oral 200 mg (Cohort 3), plasma, geometric mean): 152 µg·h/mL | Tmax (HV single oral 200 mg (Cohort 3), plasma): 1 h | AUC(0-inf) (HV single oral 200 mg (Cohort 3), red blood cells (calculated conc.), geometric mean): 71200 µg·h/mL | Tmax (HV single oral 200 mg (Cohort 3), red blood cells (calculated conc.)): 8 h | AUC(0-inf) (HV single oral 200 mg (Cohort 3), whole blood, geometric mean): 31600 µg·h/mL | Tmax (HV single oral 200 mg (Cohort 3), whole blood): 8 h | AUC(0-inf) (HV single oral 400 mg (Cohort 5), plasma, geometric mean): 361 µg·h/mL | Tmax (HV single oral 400 mg (Cohort 5), plasma): 1 h | AUC(0-inf) (HV single oral 400 mg (Cohort 5), red blood cells (calculated conc.), geometric mean): 163000 µg·h/mL | Tmax (HV single oral 400 mg (Cohort 5), red blood cells (calculated conc.)): 10 h | AUC(0-inf) (HV single oral 400 mg (Cohort 5), whole blood, geometric mean): 67200 µg·h/mL | Tmax (HV single oral 400 mg (Cohort 5), whole blood): 8 h | AUC(0-inf) (HV single oral 800 mg (Cohort 6), plasma, geometric mean): 623 µg·h/mL | Tmax (HV single oral 800 mg (Cohort 6), plasma): 2.5 h | AUC(0-inf) (HV single oral 800 mg (Cohort 6), red blood cells (calculated conc.), geometric mean): 266000 µg·h/mL | Tmax (HV single oral 800 mg (Cohort 6), red blood cells (calculated conc.)): 36 h | AUC(0-inf) (HV single oral 800 mg (Cohort 6), whole blood, geometric mean): 111000 µg·h/mL | Tmax (HV single oral 800 mg (Cohort 6), whole blood): 16 h | AUC(0-inf) (HV single oral 1400 mg (Cohort 7), plasma, geometric mean): 1080 µg·h/mL | Tmax (HV single oral 1400 mg (Cohort 7), plasma): 2.5 h | AUC(0-inf) (HV single oral 1400 mg (Cohort 7), red blood cells (calculated conc.), geometric mean): 499000 µg·h/mL | Tmax (HV single oral 1400 mg (Cohort 7), red blood cells (calculated conc.)): 30 h | AUC(0-inf) (HV single oral 1400 mg (Cohort 7), whole blood, geometric mean): 210000 µg·h/mL | Tmax (HV single oral 1400 mg (Cohort 7), whole blood): 12 h | AUC(0-inf) (HV single oral 2200 mg (Cohort 8), plasma, geometric mean): 1430 µg·h/mL | Tmax (HV single oral 2200 mg (Cohort 8), plasma): 3.5 h | AUC(0-inf) (HV single oral 2200 mg (Cohort 8), red blood cells (calculated conc.), geometric mean): 670000 µg·h/mL | Tmax (HV single oral 2200 mg (Cohort 8), red blood cells (calculated conc.)): 24 h | AUC(0-inf) (HV single oral 2200 mg (Cohort 8), whole blood, geometric mean): 282000 µg·h/mL | Tmax (HV single oral 2200 mg (Cohort 8), whole blood): 24 h | Tmax (healthy volunteers n=6, single 100 mg, plasma): 1 h
Compound: O=Cc1c(O)cccc1OC[C@@H]1COCCN1C(=O)c1cccnc1CCO [Compound I, (S)-2-hydroxy-6-((4-(2-(2-hydroxyethyl)nicotinoyl)morpholin-3-yl)methoxy)benzaldehyde]
